How the values were obtained:
Nucleic Acid = test: The compound was evaluated for binding affinity towards calf thymus DNA.; type: nucleic-acid assay; conditions: Bos taurus
J774.A1 [1] = test: Inhibition of NO production by J774.A1 cells stimulated for 18 hr with Escherichia coli at 0.5 uM, measured as nitrite using the Griess assay; effectively inhibited; type: functional, cell-based; conditions: Mus musculus
J774.A1 [2] = test: Inhibition of TNF-alpha production by J774.A1 cells stimulated for 18 hr with Escherichia coli at 0.9 uM, by ELISA assay; effectively inhibited; type: functional, cell-based; conditions: Mus musculus

C50 (Nucleic Acid) | SMILES | inhibition (J774.A1 [1]) | inhibition (J774.A1 [2])
1.27 µM | CCCCCCCCCCCCCCCCCC(=O)NCCCNCCCCNCCCN | – | –
0.9 µM | CCCCCCCCCCCCCCCC(=O)NCCCNCCCNCCCCNCCCN | effectively inhibited | effectively inhibited
1.29 µM | CCCCCCCC/C=C/CCCCCCCC(=O)NCCCNCCCCNCCCN | – | –
1.35 µM | CCCCCCCCCCCCCCCC(=O)NCCCNCCCCNCCCN | – | –

— ChEMBL document CHEMBL1133065, “Lipopolyamines incorporating the tetraamine spermine, bound to an alkyl chain, sequester bacterial lipopolysaccharide” (Bioorg Med Chem Lett, 2000)
